We go through one molecule from ChEMBL document CHEMBL5346941, “Design, synthesis and evaluation of novel monoamine oxidase B (MAO-B) inhibitors with improved pharmacokinetic properties for Parkinson's disease” (Eur J Med Chem, 2023).

Data set [1] in a line: Cmax in fasted ICR mouse at 5 mg/kg, IG measured for 24 hrs. Also on record: dose 5 mg/kg, time 24 hrs, route ig. The data set is classed as ADME, organism-based. The settings on record: in vivo, po.
The nature of data set [2]: Metabolic stability in mouse liver microsomes assessed as half life at 1 uM incubated for 60 mins in presence of NADPH by LC-MS/MS analysis. The class given is ADME, Microsome.
Data set [3] is described as follows: Drug concentration in Sprague-Dawley rat brain at 5 mg/kg, ip measured after 15 mins by LC-MS/MS analysis. The class given is ADME, organism-based. To be noted: read-out: Ct.
Data set [4] is described as follows: Protein binding in mouse plasma at 1 uM incubated for 5 hrs by LC-MS/MS based rapid equilibrium dialysis method. The data set is classed as ADME, cell-free. To be noted: read-out: PPB (converted).
The target in a further data set is T1, CYP1A2 (Homo sapiens, UniProt P05177).
T1 sequence (P05177 whole entry): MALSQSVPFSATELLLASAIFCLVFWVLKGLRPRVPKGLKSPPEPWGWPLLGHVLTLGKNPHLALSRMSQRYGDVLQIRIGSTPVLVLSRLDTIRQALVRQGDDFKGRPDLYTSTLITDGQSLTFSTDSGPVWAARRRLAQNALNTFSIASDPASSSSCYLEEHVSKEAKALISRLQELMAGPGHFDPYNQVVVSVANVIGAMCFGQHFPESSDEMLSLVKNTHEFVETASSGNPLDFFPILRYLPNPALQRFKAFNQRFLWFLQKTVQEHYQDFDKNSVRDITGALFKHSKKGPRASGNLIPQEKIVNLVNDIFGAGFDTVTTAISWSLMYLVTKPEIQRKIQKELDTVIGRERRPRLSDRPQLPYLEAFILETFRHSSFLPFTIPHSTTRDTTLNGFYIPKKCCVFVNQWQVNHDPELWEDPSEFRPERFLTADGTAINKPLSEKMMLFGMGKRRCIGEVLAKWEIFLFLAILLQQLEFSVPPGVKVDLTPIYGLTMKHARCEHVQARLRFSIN
Description: Inhibition of CYP1A2 in human liver microsomes using ethoxyresorufin as substrate at 10 uM incubated for 10 mins in presence of NADPH by LC-MS/MS analysis relative to control. The data set is classed as ADME, Microsome. The settings on record: probe ethoxyresorufin.

Data set [5] has as its target Voltage-gated inwardly rectifying potassium channel KCNH2 (Homo sapiens, UniProt Q12809). Kind of data set: Inhibition of hERG transfected in CHO-K1 cells at -80 mV holding potential incubated for 2 mins by patch clamp assay. The data set is classed as toxicity, cell-based.
Data set [6] can be described thus: Ratio of drug concentration in Sprague-Dawley brain to plasma at 5 mg/kg, ip measured after 60 mins by LC-MS/MS analysis. The data set is classed as ADME, organism-based. The settings on record: rat, read-out: BPR.
The nature of data set [7]: Bioavailability in fasted ICR mouse at 5 mg/kg, IG measured for 24 hrs. The data set is classed as ADME, organism-based. To be noted: in vivo, po.
Data set [8] in a line: Apparent permeability across apical to basolateral side in MDCKII-MDR1 cells at 10 uM incubated for 30 mins by LC-MS/MS analysis. The class given is ADME, cell-based, Canis lupus familiaris. The settings on record: dog, MDCK-MDR1.
Data set [9] is described as follows: Drug concentration in Sprague-Dawley rat brain at 5 mg/kg, ip measured after 120 mins by LC-MS/MS analysis. The data set is classed as ADME, organism-based. The settings on record: read-out: Ct.
A short description of data set [10]: Metabolic stability in monkey liver microsomes assessed as half life at 1 uM incubated for 60 mins in presence of NADPH by LC-MS/MS analysis. The class given is ADME, Macaca mulatta, Microsome. The settings on record: rhesus monkey.
A short description of data set [11]: In vivo inhibition of MAO-B in ICR mouse assessed as reduction in enzyme activity in brain by measuring fold change at 1.28 mg/kg, ip administered once for 30 to 60 mins by amplex red based assay relative to safinamide. To be noted: time 30-60 min. The data set is classed as functional.
Data set [12] in a line: Metabolic stability in human liver microsomes assessed as intrinsic clearance at 1 uM incubated for 60 mins in presence of NADPH by LC-MS/MS analysis. The data set is classed as ADME, Microsome. To be noted: read-out: CLH.
Data set [13] is described as follows: Drug concentration in Sprague-Dawley rat plasma at 5 mg/kg, ip measured after 15 mins by LC-MS/MS analysis. The class given is ADME, organism-based.
The target in a further data set is CYP2C9 (Homo sapiens, UniProt P11712). Kind of data set: Inhibition of CYP2C9 in human liver microsomes using diclofenac as substrate at 10 uM incubated for 10 mins in presence of NADPH by LC-MS/MS analysis relative to control. The class given is ADME, Microsome. To be noted: probe diclofenac.
Sequence of CYP2C9 (P11712 whole entry): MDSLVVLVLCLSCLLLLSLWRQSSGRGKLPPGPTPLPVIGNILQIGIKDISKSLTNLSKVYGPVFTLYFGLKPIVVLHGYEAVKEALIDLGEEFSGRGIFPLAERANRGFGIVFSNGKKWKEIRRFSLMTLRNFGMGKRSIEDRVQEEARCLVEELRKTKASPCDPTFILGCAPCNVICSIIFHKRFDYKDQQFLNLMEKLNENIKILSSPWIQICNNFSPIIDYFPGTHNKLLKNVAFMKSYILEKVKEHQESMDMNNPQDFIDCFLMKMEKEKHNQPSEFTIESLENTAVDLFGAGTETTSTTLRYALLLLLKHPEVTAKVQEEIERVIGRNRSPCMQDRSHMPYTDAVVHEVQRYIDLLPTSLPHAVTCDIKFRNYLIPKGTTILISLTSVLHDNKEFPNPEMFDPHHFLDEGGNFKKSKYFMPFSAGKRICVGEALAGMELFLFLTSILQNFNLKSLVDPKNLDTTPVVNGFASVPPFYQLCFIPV
The nature of data set [14]: Cmax in fasted ICR mouse at 2 mg/kg, iv measured for 24 hrs. To be noted: in vivo. The class given is ADME, organism-based. Also on record: time 24 hrs, dose 2 mg/kg, route iv.

Sequence of Voltage-gated inwardly rectifying potassium channel KCNH2 (Q12809 whole entry): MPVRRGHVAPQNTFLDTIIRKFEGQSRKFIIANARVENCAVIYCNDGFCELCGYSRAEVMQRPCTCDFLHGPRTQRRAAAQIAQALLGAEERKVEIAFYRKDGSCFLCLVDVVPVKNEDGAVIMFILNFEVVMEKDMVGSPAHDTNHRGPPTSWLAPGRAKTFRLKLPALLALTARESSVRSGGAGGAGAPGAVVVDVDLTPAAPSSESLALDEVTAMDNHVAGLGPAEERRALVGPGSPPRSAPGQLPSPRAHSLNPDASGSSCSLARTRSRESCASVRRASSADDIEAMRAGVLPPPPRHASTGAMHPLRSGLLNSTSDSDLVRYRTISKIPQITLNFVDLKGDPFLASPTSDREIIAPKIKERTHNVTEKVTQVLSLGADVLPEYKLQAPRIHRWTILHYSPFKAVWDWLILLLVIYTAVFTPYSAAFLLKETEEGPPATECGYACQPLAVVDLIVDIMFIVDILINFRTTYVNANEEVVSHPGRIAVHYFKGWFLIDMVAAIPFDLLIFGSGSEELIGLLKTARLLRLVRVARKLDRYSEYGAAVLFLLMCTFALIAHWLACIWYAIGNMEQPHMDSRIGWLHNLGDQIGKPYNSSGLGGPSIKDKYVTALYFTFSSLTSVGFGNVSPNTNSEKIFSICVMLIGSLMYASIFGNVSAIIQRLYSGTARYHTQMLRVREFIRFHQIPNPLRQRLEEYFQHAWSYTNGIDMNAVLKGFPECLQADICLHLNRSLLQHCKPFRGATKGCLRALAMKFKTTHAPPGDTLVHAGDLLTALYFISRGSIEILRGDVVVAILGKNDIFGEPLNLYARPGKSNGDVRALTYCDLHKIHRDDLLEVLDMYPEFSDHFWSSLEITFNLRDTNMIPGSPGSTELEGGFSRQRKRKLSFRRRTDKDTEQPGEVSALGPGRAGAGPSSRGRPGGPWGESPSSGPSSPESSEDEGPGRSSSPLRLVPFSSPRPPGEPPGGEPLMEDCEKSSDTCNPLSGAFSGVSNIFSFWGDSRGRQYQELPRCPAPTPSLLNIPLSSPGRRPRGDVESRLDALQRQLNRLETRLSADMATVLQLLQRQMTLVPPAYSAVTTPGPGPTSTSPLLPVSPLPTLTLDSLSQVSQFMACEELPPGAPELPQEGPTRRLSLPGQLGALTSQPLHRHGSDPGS

With `NC(=O)[C@@H]1C[C@H](F)CN1Cc1ccc2oc(-c3ccc(F)cc3)cc2c1`, the Cmax in data set [1] worked out at 913 ng/mL; in data set [14] it was 900 ng/mL. The half-life at 1 µM came out at 2.82 h in data set [2] and 5.63 h in [10]. For the same molecule, the values for the concentration at 0.25 h in [3] and in [13] were 5560 ng/g and 536 ng/mL, respectively. In data set [4], the fraction unbound at 5 h, 1 µM was 0.0066. For the same molecule, the inhibition at 10 min, 10 µM stood at 32.6% on CYP1A2 and 8.05% at CYP2C9. In data set [5], this molecule displayed an IC50 of more than 30 µM. Besides, the Kp at 1 h in [6] came to 16.2. Moreover, the bioavailability in data set [7] was found to be 105%. For the same molecule, in data set [8], the Papp A→B at 0.5 h, 10 µM was found to be 8.78 ×10⁻⁶ cm/s. For the same molecule, the concentration at 2 h in data set [9] was determined as 7090 ng/g. In data set [11], the “fold change (FC)” value worked out at 5. The CLint scaled at 1 µM in [12] stood at 2.5 mL/min/kg.
